# Data as given in the METLIN SMRT retention time set (Domingo-Almenara et al. 2019).
# Assay: gradient 5% acetonitrile 3 min, to 50% in 2 min, to 85% in 15 min, held 3 min, 100 µL/min
# Settings: column: Zorbax Extend-C18 2.1 x 50 mm; eluents: water / acetonitrile, 0.1% formic acid
# In short: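 Retention times come from adduct peaks that were picked computationally and then checked by hand. The standards, pure and pooled in mixtures of ~100 molecules, were run on a Zorbax Extend-C18 column (2.1 × 50 mm, 1.8 μm) at 100 μL/min with water and acetonitrile, each with 0.1% formic acid. Detection was by quadrupole time-of-flight mass spectrometry in positive and negative ionization mode, with a dead volume of 40 μL and a dwell volume of 900 μL.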
row,RP-LC retention time [s],SMILES
1,730,Cc1ccc(C)c(NC(=O)N2C[C@@H](F)C[C@H]2C(=O)N2CCCCC2)c1
2,835,CCOC(=O)c1c(C)[nH]c(C(=O)N2CCC(CC(=O)NC3CCCCCC3)CC2)c1C
3,760,COCCn1c(=O)c2cc(C(=O)N3CCCC3)nn2c2ccccc21
4,647,O=C(NCc1cccc(Cl)c1)C1CCN(c2cncnc2N2CCOCC2)CC1
5,758,COc1ccc(CCS(=O)(=O)NCC2(O)CCOCC2)cc1
6,626,Cc1cnc(C)n1C1CCN(S(=O)(=O)c2ccc(C#N)cc2)CC1
7,815,O=C(Cn1c(=O)c2cc(C3CC3)nn2c2ncccc21)Nc1cc(F)cc(F)c1
8,590,O=C(C1CCC1)N1CC(N(Cc2ccncc2)CC2CC2)C1
9,565,COc1ccc2c(c1)c(CN1CCC(C(=O)NCCCN3CCc4ccccc4C3)CC1)cn2C
10,630,CCn1ccc(C(=O)N2CCC(CC(=O)NC3CC3)C2)n1 (stereo not given)
11,587,O=C(CCc1c(-c2ccc(F)cc2)nc2ccccn12)NC1CC1
12,580,CCN1CCN(C(=O)C2CCc3sc(C(=O)N4CCCC4)cc3C2)CC1 (stereo not given)
13,754,Cc1cc(Nc2nc(C(=O)N3CCN(c4ccccn4)CC3)cc3occc23)ccc1Br
14,818,O=C(NCc1ccc2c(c1)N(C(=O)c1ccccc1)CC2)NC1CCCC1
15,620,O=C(Cn1nc2c(cc1=O)CCCCC2)Nc1nc(-c2ccncc2)cs1
16,959,Cc1ccc(-c2nnc(N3CCC(C(=O)NCC4CCCCC4)CC3)o2)cc1
17,567,O=C(NCCN1CCCCC1)C1CCN(c2ccc(-c3ccc(F)cc3)nn2)CC1
18,821,Cc1cccc(S(=O)(=O)N2CCCC(Cn3c(C)nc4cccnc43)C2)c1 (stereo not given)
19,608,CCC(C)NC(=O)C1CCCN(c2cnc3nccnc3c2)C1 (stereo not given)
20,1080,CCCn1cc(C(=O)NCCCOCC)c(S(=O)(=O)N2CCN(c3ccc(Cl)cc3)CC2)n1
21,715,COc1ccc(Cl)cc1-n1nnc(C(=O)NC2CC2)c1-c1ccncc1
22,809,CCc1ccc(NC(=O)CSc2nc(N3CCCCC3)nc3ccccc23)cc1
23,965,CCS(=O)(=O)N1CCC2(CC1)C(OC)CN2c1cccc(F)c1 (stereo not given)
24,754,CCOc1ccc(N2CC(NC(=O)Nc3ccc(OC(F)F)cc3)CC2=O)cc1 (stereo not given)
25,882,CCN(CC)CCOC(=O)C(c1ccccc1)C1CCCCC1 (stereo not given)

row,RP-LC retention time [s],SMILES
1,610,Cc1ccccc1C(=O)NCCN1CCN(c2ccc(Cl)cc2)CC1
2,863,O=C(C1CCCN(c2ncc(-c3ccc(F)cc3)cn2)C1)N1CCCC1 (stereo not given)
3,1050,Cc1cc(C)c2c(-n3cccc3)nn(CC(=O)NC3CCCCCC3)c2n1
4,968,CCCn1cc(C(=O)NCCC(C)C)c2nn(-c3ccccc3)c(=O)c-2c1
5,830,O=C(NCc1cc(F)ccc1F)c1ccc2c(c1)nc1n2CCN(C2CCCCC2)C1=O
6,653,O=C([C@@H]1C[C@H](F)CN1C(=O)Nc1ccccc1)N1CCCCC1
7,745,Cc1ccccc1NC(=O)Cn1nc2c(N(C)C3CCCCC3)nccn2c1=O
8,601,CCc1nc2cc(N3CCCC(C(=O)NCCN4CCCC4)C3)cnc2nc1CC (stereo not given)
9,940,O=C(Cn1c2ccccc2c2ncn(Cc3nc(C4CC4)no3)c(=O)c21)NCCC1=CCCCC1
10,852,O=C(NC1CCCCCCC1)C1CCN(C(=O)c2ncn3c2COC(c2ccc(F)cc2)C3)CC1 (stereo not given)
11,809,CC(C)CC(=O)N1CCN(c2ccc(=O)n(-c3ccc(Cl)cc3)n2)CC1
12,848,O=C(NC1CCCCC1)c1cccc(Nc2c(-c3ccc(F)cc3)nc3cnccn23)c1
13,702,O=C(NCCOc1ccc(F)cc1)C1CCCN(c2ccc(-c3cccs3)nn2)C1 (stereo not given)
14,562,CC(=O)Nc1ccc(SCCCC(=O)Nc2cccc(C)n2)nn1
15,1060,CCOC(=O)c1cc(S(=O)(=O)N2CCCC2C(=O)Nc2ccc(C)cc2Br)cn1C (stereo not given)
16,1370,O=C(NC1CCCCCCC1)C1CCCN(c2nc3ccccc3n(Cc3ccccc3)c2=O)C1 (stereo not given)
17,1020,CCn1cc(C(=O)NCCC2=CCCCC2)c2nn(-c3ccccc3)c(=O)c-2c1
18,796,CCNC(=O)C1CCN(S(=O)(=O)c2ccc(OCC)c(C)c2)CC1
19,947,O=C(NCCc1cccs1)C1CCCN(c2nccn3nc(-c4ccccc4Cl)cc23)C1 (stereo not given)
20,612,O=C(CCc1nnc2ccc(NCc3ccc(F)cc3)nn12)N1CCN(c2ccccn2)CC1
21,642,CC(=O)N1CCN(Cc2ccc([C@H](C)Nc3nccc(N4C(=O)OC[C@@H]4C(C)C)n3)cc2)CC1
22,730,Cc1cc2c(cc1S(=O)(=O)N1CCCC1C(=O)NC1CCCC1)OC(C)C(=O)N2 (stereo not given)
23,704,Cc1nn(CC(=O)NCCN2CCOCC2)c(=O)c2c(-n3cccc3)n(-c3ccc(Cl)cc3)nc12
24,561,CCS(=O)(=O)NCC(c1cccnc1)N1CCN(c2ccccc2F)CC1 (stereo not given)
25,636,COc1ccc(N2CCN(C(=O)c3cc(NC(=O)C(C)C)cc4nc(C)ccc34)CC2)cc1

# Further lines, the molecule ahead of its results:
row,SMILES,RP-LC retention time [s]
1,Cc1cccc(-c2noc(CN3C(=O)COc4cc(C)ccc43)n2)c1,1110
2,CC(=O)Nc1ccc(C2(C(=O)NCc3ccc(F)cc3)CCC2)cc1,748
3,CCCn1c(=O)c(C)nc2cc(-c3noc(-c4ccc5c(c4)OCO5)n3)ccc21,1150
4,Cc1ccc(NC(=O)N2CCCC2c2nc(-c3cccc(Cl)c3)no2)cc1 (stereo not given),1110
5,CCOCCOC(=O)c1cn(-c2ccc(OC)cc2)c(=O)c2ccccc12,963
6,CN(CC1(C)CCOCC1)C(=O)COc1ccc(F)cc1,770
7,FC1(c2nc(-c3ccccc3)no2)CCN(C2CCOCC2)CC1,636
8,COc1ccc(Cl)cc1NC(=O)Cn1nc2c(Oc3ccccc3C)nccn2c1=O,930
9,COc1ccc(NC(=O)c2ccc(-c3cncnc3)nc2)cc1,687
10,O=C(Cn1cc(-c2ccc(F)cc2)oc1=O)N1CCN(c2cccc(Cl)c2)CC1,972
11,Cc1sc(-c2cc(C(F)(F)F)on2)cc1S(=O)(=O)NCCc1ccc(Cl)cc1,1220
12,O=C(Nc1nnc(SCc2ccc(Br)cc2)s1)c1ccccc1F,1020
13,Cc1nc(N)nc(Nc2ccc(C#N)cc2)c1Br,658
14,COc1ccccc1NC(=O)Cn1nc2cc(C)nc(-c3ccc(F)cc3)n2c1=O,851
15,COCCNc1c(-c2ccc(C)cc2)nc2sc(C(=O)N(C)C)c(C)n12,698
16,COc1ccc(Cl)cc1S(=O)(=O)NCC1(C)CCOCC1,874
17,COc1ccc(OC)c(CNC(=O)C2c3ccccc3C(=O)N3CCc4ccccc4C23)c1 (stereo not given),867
18,O=C(Nc1ccc(-n2cnnn2)cc1)C1CC(=O)N(c2ccccc2)C1 (stereo not given),662
19,Cc1nnc(SCC(=O)c2ccc3c(c2)OCCO3)s1,746
20,COC(=O)c1ccc2c(=O)n(Cc3ccc(F)cc3)c(N3CCN(C)CC3)nc2c1,668

row,SMILES,RP-LC retention time [s]
1,O=C(CCc1nc(CSc2nnc(-c3ccccc3)o2)no1)Nc1nccs1,766
2,COc1cc(NC(=O)c2cccc([N+](=O)[O-])c2)c(OC)cc1Cl,921
3,COc1cccc(S(=O)(=O)N2CCC(c3noc(-c4ccccc4C)n3)CC2)c1,1140
4,Cc1csc(-c2cc(S(=O)(=O)NCCCc3ccccc3)c(C)s2)n1,1080
5,CCC(CC)C(=O)Oc1coc(CSc2nc(C)cs2)cc1=O,882
6,O=C(NCCOc1ccc(F)cc1)C(=O)Nc1ccc(Cl)cn1,912
7,Cc1nn(-c2nc(-c3ccc(F)cc3)cs2)c(C)c1CC(=O)Nc1ccccc1Cl,1230
8,CCc1ccc(S(=O)(=O)c2cnc(N3CCN(c4ccc(OC)cc4)CC3)nc2N)cc1,996
9,CN1C(=O)c2cc(S(=O)(=O)Nc3ccc4c(c3)OCCO4)ccc2Oc2cccnc21,826
10,Cc1ccccc1Nc1c(-c2cccc(Br)c2)nc2c(C)cccn12,849
11,CCc1noc(NC(C)=O)c1-c1ccc(C)c(S(=O)(=O)Nc2ccc(Cl)cc2F)c1,866
12,Cc1cc(C)cc(NC(=O)N2CCN(c3cnn4c(C)nnc4c3)CC2)c1,634
13,COc1ccc(NC(=O)c2c(N3CCCC3=O)c3cc(F)ccc3n2C)cc1,922
14,Fc1cccc(-c2nc(-c3cn(-c4ccccc4)nn3)no2)c1,1040
15,CC(NC(=O)Cc1cccn1-c1ccc(Cl)cc1)c1cccnc1 (stereo not given),649
16,CC(=O)N(Cc1nn(C)c2c1CN(CC1=Cc3ccccc3OC1)CC2)c1ccccc1,654
17,CC(C)(C)C(=O)C(Oc1ccc(Cl)cc1)n1ccnc1 (stereo not given),780
18,COCCCNC(=O)C1(C)CCC(=O)N1CCc1c[nH]c2ccccc12 (stereo not given),668
19,Nc1ncnc2c1nc(Cl)n2C1OC2COP(=O)(O)OC2C1O (stereo not given),523
20,CN1C(=O)N(C)C2(CCN(C(=O)Cc3ccc(Cl)cc3)CC2)C1=O,686
